System: C3H/HeNCrj mice
Experiment: Hair Regrowth Test
Format: in vivo
Settings: 23 days of application; 0.1 ml of 0.1 w/v % ethanol solution on shaved back once a day; average of group (10 mice)
Method: By using C3H/HeNCrj mice, whose hair cycle was in resting stage, the experiment was performed according to the method of Ogawa et. al. (Normal and Abnormal Epidermal Differentiation, Edited by M. Seiji and I. A. Bernstein, Pages 159-170, 1982, Todai Shuppan). 10 mice were used in a group and the mice's hair within the area of 3×4 cm of the regions of back was shaved by a clipper and a shaver. 0.1 ml of ethanol (negative contrast) or ethanol solution of the tested compound (0.1 w/v %) was applied on the shaved portion once a day. For hair regrowth effect of the tested compound, the hair regrowth area of mice's region of back was measured and ratio of the hair regrowth area with respect to the shaved area was evaluated as hair regrowth area rate (%).

Q: With `CCCCCCCCCCCCCCCCCCNC(=O)Oc1ccccc1CCC(=O)NCCCN(C)C` [Compound 1, 2-[3-[[3-(Dimethylamino)propyl]amino]-3-oxopropyl]phenyl N-octadecylcarbamate] as the compound, how does the “Hair Regrowth Area Rate” value read?
A: 69%

Q: `CCCCCCCCCCCCCCCCCCNC(=O)Oc1ccccc1CCC(=O)NCCCN(C)C.Cl` [Compound 2, 2-[3-[[3-(Dimethylamino)propyl]amino]-3-oxopropyl]phenyl N-octadecylcarbamate hydrochloride] was tested. Which “Hair Regrowth Area Rate” value did it give?
A: 10%

Same assay, conditions: 24 days of application; 0.1 ml of 0.1 w/v % ethanol solution on shaved back once a day; average of group (10 mice)

Q: How did the “Hair Regrowth Area Rate” value turn out when `CCCCCCCCCCCCCCCCCCOc1ccccc1CCC(=O)NCCCN(C)C.Cl` [Compound 8, N-[3-(Dimethylamino)propyl]-3-[2-(octadecyloxy)phenyl]propanamide hydrochloride] was run?
A: 100%

Q: `CCCCCCCCCCCCCCCCCCNC(=O)Oc1ccccc1CCC(=O)NCCCN1CCOCC1.Cl` [Compound 6, 2-{3-[(3-Morpholinopropyl)amino]-3-oxopropyl}phenyl N-octadecylcarbamate hydrochloride] was tested. Which “Hair Regrowth Area Rate” value did it give?
A: 17%

Q: How did the “Hair Regrowth Area Rate” value turn out when `CCCCCCCCCCCCCCCCCCNC(=O)Oc1ccccc1CCC(=O)N1CCN(C)CC1.Cl` [Compound 4, 2-[3-(4-Methylpiperazino)-3-oxopropyl]phenyl N-octadecylcarbamate hydrochloride] was run?
A: 100%

Q: With `CCCCCCCCCCCCCCCCCCOc1ccccc1CCC(=O)N1CCN(C)CC1.Cl` [Compound 12, 1-(4-Methylpiperazino)-3-[2-(octadecyloxy)phenyl]-1-propanone hydrochloride] as the compound, how does the “Hair Regrowth Area Rate” value read?
A: 38%

Q: For `CCCCCCCCCCCCCCCCCCOc1ccccc1CCC(=O)NCCCN1CCOCC1.Cl` [Compound 10, N-(3-Morpholinopropyl)-3-[2-(octadecyloxy)phenyl]propanamide hydrochloride], which “Hair Regrowth Area Rate” value is on record?
A: 38%

Q: For `CCCCCCCCCCCCCCCCCCNC(=O)Oc1ccccc1CCC(=O)N1CCN(C)CC1` [Compound 3, 2-[3-(4-Methylpiperazino)-3-oxopropyl]phenyl N-octadecylcarbamate], which “Hair Regrowth Area Rate” value is on record?
A: 100%

Q: With `CCCCCCCCCCCCCCCCCCNC(=O)Oc1ccccc1CCC(=O)NCCCN1CCOCC1` [Compound 5, 2-{3-[(3-Morpholinopropyl)amino]-3-oxopropyl}phenyl N-octadecylcarbamate] as the compound, how does the “Hair Regrowth Area Rate” value read?
A: 16%

Source: patent US6573297B2, “(2-substituted oxyphenyl)alkanamide derivative, hair growth promoter and external composition for skin using the same” (Shiseido Co., Ltd., priority 1999, dated 2003)
